Results from PubChem BioAssay AID248 (DTP/NCI, 2004).
Several values for one entry are separate records, joined by “and”; a condition that tells them apart may be missing. Identical values can stand only once. Inconclusive results and toxic doses are left out. Cut-off read from the data, not from the text of the source: active = T/C of 150% or more; inactive = T/C below 125%.

Tested on: L1210 leukemia ip in BDF1 mice, survival T/C
Test: NCI In Vivo Anticancer Drug Screen. Data for tumor model L1210 Leukemia (intraperitoneal) in B6D2F1 (BDF1) mice
Details: endpoint: mean survival time, higher = longer survival
In short: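 Mice bearing the transplanted tumor received compound or vehicle. Survival of the treated group was divided by that of the vehicle-treated control group to give the ratio.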

[1] = dose: 100.0 mg/kg/injection, schedule: Q01DX009 (ip), vehicle: saline with Tween-80
[2] = dose: 100.0 mg/kg/injection, schedule: Q04DX003 (ip), vehicle: saline with Tween-80
[3] = dose: 200.0 mg/kg/injection, schedule: Q01DX009 (ip), vehicle: saline with Tween-80
[4] = dose: 200.0 mg/kg/injection, schedule: Q04DX003 (ip), vehicle: saline with Tween-80
[5] = dose: 400.0 mg/kg/injection, schedule: Q01DX009 (ip), vehicle: saline with Tween-80
[6] = dose: 400.0 mg/kg/injection, schedule: Q04DX003 (ip), vehicle: saline with Tween-80
[7] = dose: 100.0 mg/kg/injection, schedule: Q04DX003 (ip), vehicle: Klucel (hydroxypropylcellulose) (HPC)
[8] = dose: 200.0 mg/kg/injection, schedule: Q04DX003 (ip), vehicle: Klucel (hydroxypropylcellulose) (HPC)
[9] = dose: 400.0 mg/kg/injection, schedule: Q04DX003 (ip), vehicle: Klucel (hydroxypropylcellulose) (HPC)
[10] = dose: 100.0 mg/kg/injection, schedule: Q01DX001 (ip), vehicle: saline
[11] = dose: 200.0 mg/kg/injection, schedule: Q01DX001 (ip), vehicle: saline
[12] = dose: 100.0 mg/kg/injection, schedule: Q01DX009 (ip), vehicle: Klucel (hydroxypropylcellulose) (HPC)
[13] = dose: 200.0 mg/kg/injection, schedule: Q01DX009 (ip), vehicle: Klucel (hydroxypropylcellulose) (HPC)
[14] = dose: 400.0 mg/kg/injection, schedule: Q01DX001 (ip), vehicle: saline
[15] = dose: 100.0 mg/kg/injection, schedule: Q04DX002 (ip), vehicle: saline with Tween-80
[16] = dose: 100.0 mg/kg/injection, schedule: Q01DX001 (ip), vehicle: carboxymethylcellulose (CMC)
[17] = dose: 200.0 mg/kg/injection, schedule: Q01DX001 (ip), vehicle: carboxymethylcellulose (CMC)
[18] = dose: 400.0 mg/kg/injection, schedule: Q01DX001 (ip), vehicle: carboxymethylcellulose (CMC)

Measured: T/C

O=C(O)C1=CC2C3C=CC(C(=O)O)(C3)C2C1 (centres undefined)
inactive: [1] 96 % of control | [2] 101 % of control | [3] 96 % of control | [4] 102 % of control | [5] 94 % of control | [6] 98 % of control

Cc1cc(Cl)c(Cl)cc1NC(=O)c1ccc(Cl)c(Cl)c1
inactive: [1] 94 % of control and 101 % of control | [3] 101 % of control | [5] 102 % of control and 104 % of control

C=C(C)C1CCC2(C(=O)O)CCC3(C)C(CCC4C5(C)CCC(=O)C(C)(C)C5CCC43C)C12 (centres undefined)
inactive: [7] 102 % of control | [8] 96 % of control | [9] 94 % of control

CCCC1(CC)C(=O)NC(=S)N(C)C1=O (centres undefined)
inactive: dose: 75.0 mg/kg/injection, schedule: Q01DX001 (ip), vehicle: carboxymethylcellulose (CMC) 95 % of control | dose: 75.0 mg/kg/injection, schedule: Q01DX001 (ip), vehicle: other 94 % of control | dose: 150.0 mg/kg/injection, schedule: Q01DX001 (ip), vehicle: carboxymethylcellulose (CMC) 98 % of control | dose: 150.0 mg/kg/injection, schedule: Q01DX001 (ip), vehicle: other 111 % of control | dose: 300.0 mg/kg/injection, schedule: Q01DX001 (ip), vehicle: carboxymethylcellulose (CMC) 104 % of control

CC(C)(Br)C(=O)C(Br)Br
inactive: [10] 106 % of control | [11] 102 % of control

CN1C(=O)CN=C(c2ccc[nH]2)c2cc(Cl)ccc21 (tested in a mixture with another compound)
inactive: [12] 96 % of control | [7] 103 % of control | [13] 91 % of control | [8] 102 % of control | [9] 105 % of control

COC1C(OC(=O)/C=C/C=C/C=C/C=C/C(=O)O)CCC2(CO2)C1C1(C)OC1CC=C(C)C (centres undefined)
inactive: dose: 2.5 mg/kg/injection, schedule: Q01DX Z (ip), vehicle: methylcellulose (MC) 115 % of control | dose: 5.0 mg/kg/injection, schedule: Q01DX Z (ip), vehicle: methylcellulose (MC) 110 % of control | dose: 10.0 mg/kg/injection, schedule: Q01DX Z (ip), vehicle: methylcellulose (MC) 115 % of control | dose: 10.0 mg/kg/injection, schedule: Q01DX Z (ip), vehicle: saline 109 % of control | dose: 20.0 mg/kg/injection, schedule: Q01DX Z (ip), vehicle: methylcellulose (MC) 118 % of control | dose: 20.0 mg/kg/injection, schedule: Q01DX Z (ip), vehicle: saline 115 % of control | dose: 40.0 mg/kg/injection, schedule: Q01DX Z (ip), vehicle: methylcellulose (MC) 121 % of control | dose: 40.0 mg/kg/injection, schedule: Q01DX Z (ip), vehicle: saline 123 % of control | dose: 50.0 mg/kg/injection, schedule: Q01DX009 (ip), vehicle: saline 101 % of control | dose: 50.0 mg/kg/injection, schedule: Q04DX003 (ip), vehicle: saline 116 % of control | dose: 80.0 mg/kg/injection, schedule: Q01DX Z (ip), vehicle: saline 120 % of control | [10] 93 % of control | dose: 100.0 mg/kg/injection, schedule: Q01DX009 (ip), vehicle: saline 101 % of control | dose: 100.0 mg/kg/injection, schedule: Q04DX003 (ip), vehicle: saline 93 % of control | [11] 93 % of control | dose: 200.0 mg/kg/injection, schedule: Q01DX009 (ip), vehicle: saline 106 % of control | dose: 200.0 mg/kg/injection, schedule: Q04DX003 (ip), vehicle: saline 98 % of control

O=C(O)CCC1COc2ccccc2O1 (centres undefined)
inactive: dose: 50.0 mg/kg/injection, schedule: Q01DX001 (ip), vehicle: saline 100 % of control | [10] 108 % of control | [11] 114 % of control | [14] 100 % of control

COc1ccc(C(=O)c2ccc(Br)s2)cc1
inactive: [12] 94 % of control | [7] 97 % of control | [13] 97 % of control | [8] 97 % of control | dose: 400.0 mg/kg/injection, schedule: Q01DX009 (ip), vehicle: Klucel (hydroxypropylcellulose) (HPC) 95 % of control | [9] 96 % of control

CCCCC(=O)N/N=C/C=C/c1ccccc1[N+](=O)[O-]
inactive: [10] 97 % of control | [11] 105 % of control | [14] 105 % of control

CCc1ccc(N=C/C=C/c2ccccc2)cc1
inactive: dose: 25.0 mg/kg/injection, schedule: Q01DX009 (ip), vehicle: other 98 % of control | dose: 50.0 mg/kg/injection, schedule: Q01DX009 (ip), vehicle: other 98 % of control | dose: 100.0 mg/kg/injection, schedule: Q01DX009 (ip), vehicle: other 98 % of control and 110 % of control

CC(=O)c1c(C)[nH]c(C(=O)O)c1C
inactive: dose: 100.0 mg/kg/injection, schedule: Q01DX001 (ip), vehicle: saline with Tween-80 103 % of control | dose: 200.0 mg/kg/injection, schedule: Q01DX001 (ip), vehicle: saline with Tween-80 100 % of control | dose: 400.0 mg/kg/injection, schedule: Q01DX001 (ip), vehicle: saline with Tween-80 90 % of control

COc1cc(OC)c(N=CN(C)C)cc1Cl
inactive: dose: 25.0 mg/kg/injection, schedule: Q01DX009 (ip), vehicle: Klucel (hydroxypropylcellulose) (HPC) 104 % of control | dose: 50.0 mg/kg/injection, schedule: Q01DX009 (ip), vehicle: Klucel (hydroxypropylcellulose) (HPC) 102 % of control | dose: 75.0 mg/kg/injection, schedule: Q01DX009 (ip), vehicle: Klucel (hydroxypropylcellulose) (HPC) 99 % of control and 105 % of control

O=C(NC1CCCCC1)Oc1c(Cl)cc(Cl)c(Cl)c1[N+](=O)[O-]
inactive: dose: 25.0 mg/kg/injection, schedule: Q04DX002 (ip), vehicle: saline with Tween-80 92 % of control | dose: 50.0 mg/kg/injection, schedule: Q04DX002 (ip), vehicle: saline with Tween-80 99 % of control | [15] 99 % of control and 114 % of control

Cc1cc(OC(=O)c2ccccc2)cc(C)c1OC(=O)c1ccccc1
inactive: [15] 96 % of control | dose: 200.0 mg/kg/injection, schedule: Q04DX002 (ip), vehicle: saline with Tween-80 100 % of control | dose: 400.0 mg/kg/injection, schedule: Q04DX002 (ip), vehicle: saline with Tween-80 96 % of control

Cc1ccc(C(=O)OCC2OC3OC(C)(C)OC3C2OC(=O)c2ccc(C)cc2)cc1 (centres undefined)
inactive: [16] 90 % of control | [17] 104 % of control | [18] 101 % of control

NS(N)(=O)=O
inactive: dose: 50.0 mg/kg/injection, schedule: Q01DX001 (ip), vehicle: carboxymethylcellulose (CMC) 88 % of control | [16] 95 % of control | [17] 98 % of control | [18] 98 % of control

C/C=C/C(=O)Nc1cccc(OC(=O)NC(C)C)c1
inactive: [2] 95 % of control | [4] 93 % of control | [6] 87 % of control
